Measured values reported in paper PMC11889359, “Site-Specific Competitive Kinase Inhibitor Target Profiling Using Phosphonate Affinity Tags” (Molecular & Cellular Proteomics : MCP, 2025).
Read-outs that look alike come from different tables or passages of the source.

Columns and labels:
JAK2 = target: T1, JAK2 (Homo sapiens, UniProt O60674); assay: Competitive site-specific PhosID-ABPP with XO44 in intact A549 cells; format: binding; settings: 0.1 nM to 25 µM inhibitor, trypsin and pepsin
T1 construct: endogenous in cells; host or cells: cultured cells treated intact (A549 per the earlier reading)
Method: (§1) 1e^6 cells were plated in 15 cm plates (Greiner) 3 days before treatment and kept in a humidified atmosphere with 5% CO2 at 37 °C. The growth medium was replaced by 10 ml treatment [DMEM with 0.5% FBS and 100 units/ml PS supplemented with the corresponding concentration of NVP-BHG712 (Sigma-Aldrich) or DMSO] and incubated at 37 °C, 5% CO2 for 3 h. Then, 10 μl 25 mM XO44 (PF-6808472, Sigma-Aldrich) was added directly to the medium and swirled to enable dissolution. Subsequently, the cells were incubated at 37 °C, 5% CO2 for 4 h. The samples for Supplemental Fig. S1 were generated by directly incubating with 25 μM XO44-containing growth medium for 4 h.
(§2) After treatment, the cells were washed with ice-cold DPBS and harvested using a cell scraper in 1 ml ice-cold DPBS. Then, the cell suspension was spun down at 2000g for 1 min, and the supernatant was aspirated. The cell pellet was snap-frozen in liquid nitrogen and stored at −80 °C for later use.
(§3) Cell pellets were lysed in 500 μl lysis buffer per 15 cm plate of cells, consisting of 50 mM Hepes (Sigma-Aldrich, pH 7.5), 0.5% NP-40 (Applichem), 0.2% SDS (Gen-Apex), 2 mM MgCl2 (Sigma-Aldrich), 10 mM NaCl (Merck), 1× protease inhibitor cocktail (Roche), and 0.5 μl/ml Benzonase (Millipore). Cell lysates were incubated at room temperature for 15 min to allow DNA cleavage. Cell debris and DNA were spun down for 30 min at 20,567g at 16 °C. The supernatant was collected, and the protein concentration was determined by a bicinchoninic acid assay (Thermo Fisher Scientific).
(§4) The copper(I)-catalyzed azide-alkyne cycloaddition (CuAAC) was performed on cellular lysates in 2 M urea (Merck) in 1× 50 mM Hepes (pH 7.5). CuAAC components were added in the following order: 5 mM tris(3-hydroxypropyltriazolylmethyl)amine (Lumiprobe), 2.5 mM CuSO4 5·H2O (Sigma-Aldrich), 500 μM phosphonate-azide (prepared as described in van Bergen et al., 2023 ([28])), and 25 mM sodium ascorbate (Sigma-Aldrich). Samples were incubated for 2 h at room temperature while rotating. Methanol–chloroform precipitation was performed to remove the CuAAC components, and the air-dried pellets were resuspended in 8 M urea and sonicated in a bioruptor (Diagenode) with the high amplitude setting for 10 min with cycles of 30 s on and 30 s off.
(§5) Clicked and dissolved protein samples were diluted to 4M urea with 50 mM ammonium bicarbonate (pH 8, AmBic, Sigma-Aldrich). The proteins were reduced with 4 mM DTT (Sigma-Aldrich) for 60 minutes at room temperature and alkylated in the dark using 8 mM iodoacetamide (Sigma-Aldrich) for 30 min. Residual iodoacetamide was quenched by adding DTT to a final concentration of 4 mM.
(§6) Next, samples were diluted 2× with 50 mM AmBic and digested with LysC (1:75 enzyme to protein ratio, Wako) for 4 h at 37 °C. Finally, proteins were digested overnight using Trypsin (1:50, enzyme to protein ratio, Sigma-Aldrich) at 37 °C. Proteolysis with chymotrypsin was performed similarly to the trypsin digestion, only replacing both proteolytic enzymes with α-chymotrypsin (bovine, 1:75, enzyme to protein ratio, Sigma-Aldrich) overnight at 37 °C. Digested material was desalted using 3 cc C18 Seppak cartridges (Waters) and air dried using a vacuum centrifuge.
(§7) For the digestion with pepsin, protease incubation (Porcine, 1:50, enzyme to protein ratio, Sigma-Aldrich) was performed for 4 h at 37 °C in 40 mM HCl (pH 2). Digested material was directly desalted using 3 cc C18 Seppak cartridges and air dried using a vacuum centrifuge.
(§8) Samples were dephosphorylated prior to immobilized metal affinity chromatography (IMAC) enrichment. Desalted peptides were dissolved in 1× rCutSmart buffer (pH 8, New England BioLabs) and incubated with 50 units of alkaline phosphatase (calf intestinal, QuickCIP, New England BioLabs) overnight at 37 °C while shaking. After dephosphorylation, all peptides were again desalted using 3 cc C18 Seppak cartridges and air-dried using a vacuum centrifuge. […]

JAK1 = target: T2, JAK1 (Homo sapiens, UniProt P23458); assay: as above; format: binding; settings: 0.1 nM to 25 µM inhibitor, trypsin and pepsin
T2 construct: endogenous in cells; host or cells: cultured cells treated intact (A549 per the earlier reading)
Method: as §1, §2, §3, §4, §5, §6, §7, §8

[1] = target: T3, inosine-5′-monophosphate dehydrogenase 2 (IMPDH2) (Homo sapiens, UniProt P12268); assay: as above; format: binding; settings: apparent IC50, competition with XO44 on lysine 450, n = 3, read-out: IC50 IMPDH2;K450
T3 construct: endogenous in cells; host or cells: cultured cells treated intact (A549 per the earlier reading)
Method: as §1, §2, §3, §4, §5, §6, §7, §8

[2] = target: T4, epithelial discoidin domain-containing receptor 1 (DDR1) (Homo sapiens, UniProt Q08345); assay: as above; format: binding; settings: apparent IC50, pepsin-based analysis, n = 3, read-out: IC50 DDR1;K655
T4 construct: endogenous in cells; host or cells: cultured cells treated intact (A549 per the earlier reading)
Method: as §1, §2, §3, §4, §5, §6, §7, §8

MAP3K20 = target: T5, MAP3K20 (Homo sapiens, UniProt Q9NYL2); assay: as above; format: binding; settings: apparent IC50, unique peptide, n = 3, read-out: IC50 MAP3K20;K45
T5 construct: endogenous in cells; host or cells: cultured cells treated intact (A549 per the earlier reading)
Method: as §1, §2, §3, §4, §5, §6, §7, §8

[3] = target: T6, neurotrophic receptor tyrosine kinase 3 (NTRK3) (Homo sapiens, UniProt Q16288); assay: as above; format: binding; settings: 0.1 nM to 25 µM inhibitor, pepsin
T6 construct: endogenous in cells; host or cells: cultured cells treated intact (A549 per the earlier reading)
Method: as §1, §2, §3, §4, §5, §6, §7, §8

[4] = target: T7, cyclin G–associated kinase (GAK) (Homo sapiens, UniProt O14976); assay: as above; format: binding
T7 construct: endogenous in cells; host or cells: cultured cells treated intact (A549 per the earlier reading)
T7 sequence (O14976 1-1311): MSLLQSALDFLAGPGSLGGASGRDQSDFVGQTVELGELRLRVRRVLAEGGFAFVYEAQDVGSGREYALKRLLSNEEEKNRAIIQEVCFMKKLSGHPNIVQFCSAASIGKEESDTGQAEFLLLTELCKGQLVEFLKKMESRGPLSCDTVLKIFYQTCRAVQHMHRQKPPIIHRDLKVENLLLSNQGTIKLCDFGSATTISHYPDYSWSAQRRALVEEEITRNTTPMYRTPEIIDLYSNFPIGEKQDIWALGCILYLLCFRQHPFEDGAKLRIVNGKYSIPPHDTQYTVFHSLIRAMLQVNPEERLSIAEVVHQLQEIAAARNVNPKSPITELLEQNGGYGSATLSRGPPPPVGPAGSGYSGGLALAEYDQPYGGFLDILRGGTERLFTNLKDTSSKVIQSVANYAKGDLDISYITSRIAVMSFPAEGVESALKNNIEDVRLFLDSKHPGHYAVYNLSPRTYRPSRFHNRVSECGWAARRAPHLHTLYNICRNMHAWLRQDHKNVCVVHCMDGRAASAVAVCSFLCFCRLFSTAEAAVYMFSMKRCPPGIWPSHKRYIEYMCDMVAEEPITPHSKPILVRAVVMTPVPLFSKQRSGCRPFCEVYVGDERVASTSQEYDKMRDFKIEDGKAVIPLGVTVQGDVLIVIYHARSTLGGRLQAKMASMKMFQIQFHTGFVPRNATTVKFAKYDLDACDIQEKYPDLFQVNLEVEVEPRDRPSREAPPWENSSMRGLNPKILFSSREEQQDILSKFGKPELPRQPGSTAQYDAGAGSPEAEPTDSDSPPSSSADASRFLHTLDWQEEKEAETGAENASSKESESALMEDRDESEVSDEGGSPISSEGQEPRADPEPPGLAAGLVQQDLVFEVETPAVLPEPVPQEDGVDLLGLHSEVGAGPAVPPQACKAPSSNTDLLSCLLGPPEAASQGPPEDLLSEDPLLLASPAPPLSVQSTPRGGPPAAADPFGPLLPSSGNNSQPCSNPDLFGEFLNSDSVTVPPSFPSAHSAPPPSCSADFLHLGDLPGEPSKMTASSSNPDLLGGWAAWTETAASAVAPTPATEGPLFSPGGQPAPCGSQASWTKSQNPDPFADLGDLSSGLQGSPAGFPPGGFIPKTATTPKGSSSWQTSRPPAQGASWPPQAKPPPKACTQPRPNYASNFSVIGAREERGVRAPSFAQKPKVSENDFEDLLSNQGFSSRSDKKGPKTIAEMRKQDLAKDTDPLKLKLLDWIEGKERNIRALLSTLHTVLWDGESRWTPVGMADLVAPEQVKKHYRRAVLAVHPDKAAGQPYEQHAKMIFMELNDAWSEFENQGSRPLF
Method: as §1, §2, §3, §4, §5, §6, §7, §8

[5] = system: apoptosis signal-regulating kinases 1-3 (MAP3K5/6/15); assay: as above; format: binding, human; settings: apparent IC50, nonunique peptide, n = 3, read-out: IC50 MAP3K5/6/15 (nonunique peptide: MAP3K5;K709, MAP3K6;K677, MAP3K15;K681)
Method: as §1, §2
as §3, with “Cell lysates were incubated at room temperature for 15 min to allow DNA cleavage. Cell debris and DNA were spun down for 30 min at 20,567g at 16 °C.” left out, “Scientific). […]” for “Scientific).”

DDR1 = system: DDR1; parameters: method as in PMID 36799129; settings: cited from earlier work

T1 sequence (O60674 whole entry): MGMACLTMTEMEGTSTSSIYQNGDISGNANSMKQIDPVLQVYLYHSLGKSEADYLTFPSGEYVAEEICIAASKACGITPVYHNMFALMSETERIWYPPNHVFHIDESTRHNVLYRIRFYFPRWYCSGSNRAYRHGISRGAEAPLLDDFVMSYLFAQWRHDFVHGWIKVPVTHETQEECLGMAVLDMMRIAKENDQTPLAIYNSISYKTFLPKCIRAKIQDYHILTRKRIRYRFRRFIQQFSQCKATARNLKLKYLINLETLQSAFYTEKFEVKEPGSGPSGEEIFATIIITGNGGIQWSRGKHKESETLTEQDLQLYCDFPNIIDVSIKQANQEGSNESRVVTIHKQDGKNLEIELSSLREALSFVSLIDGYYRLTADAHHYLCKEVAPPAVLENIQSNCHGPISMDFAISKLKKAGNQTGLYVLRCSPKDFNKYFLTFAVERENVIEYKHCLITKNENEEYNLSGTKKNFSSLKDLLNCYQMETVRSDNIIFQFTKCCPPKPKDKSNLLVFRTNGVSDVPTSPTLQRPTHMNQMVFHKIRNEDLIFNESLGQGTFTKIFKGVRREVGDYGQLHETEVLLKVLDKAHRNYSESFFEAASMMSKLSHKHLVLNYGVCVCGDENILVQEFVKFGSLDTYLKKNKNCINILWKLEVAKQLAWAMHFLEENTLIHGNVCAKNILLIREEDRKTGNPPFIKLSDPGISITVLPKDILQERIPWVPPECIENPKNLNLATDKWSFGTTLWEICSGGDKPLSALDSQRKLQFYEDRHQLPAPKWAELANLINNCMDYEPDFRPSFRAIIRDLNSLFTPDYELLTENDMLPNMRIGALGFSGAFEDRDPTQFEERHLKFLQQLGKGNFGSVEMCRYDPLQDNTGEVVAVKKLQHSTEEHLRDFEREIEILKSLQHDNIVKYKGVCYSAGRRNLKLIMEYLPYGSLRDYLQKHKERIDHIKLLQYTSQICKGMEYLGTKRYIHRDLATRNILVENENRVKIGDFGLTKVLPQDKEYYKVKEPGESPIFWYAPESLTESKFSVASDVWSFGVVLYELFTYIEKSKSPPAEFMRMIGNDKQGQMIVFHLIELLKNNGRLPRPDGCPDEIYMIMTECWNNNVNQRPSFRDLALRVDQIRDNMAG
T4 sequence (Q08345 19-913): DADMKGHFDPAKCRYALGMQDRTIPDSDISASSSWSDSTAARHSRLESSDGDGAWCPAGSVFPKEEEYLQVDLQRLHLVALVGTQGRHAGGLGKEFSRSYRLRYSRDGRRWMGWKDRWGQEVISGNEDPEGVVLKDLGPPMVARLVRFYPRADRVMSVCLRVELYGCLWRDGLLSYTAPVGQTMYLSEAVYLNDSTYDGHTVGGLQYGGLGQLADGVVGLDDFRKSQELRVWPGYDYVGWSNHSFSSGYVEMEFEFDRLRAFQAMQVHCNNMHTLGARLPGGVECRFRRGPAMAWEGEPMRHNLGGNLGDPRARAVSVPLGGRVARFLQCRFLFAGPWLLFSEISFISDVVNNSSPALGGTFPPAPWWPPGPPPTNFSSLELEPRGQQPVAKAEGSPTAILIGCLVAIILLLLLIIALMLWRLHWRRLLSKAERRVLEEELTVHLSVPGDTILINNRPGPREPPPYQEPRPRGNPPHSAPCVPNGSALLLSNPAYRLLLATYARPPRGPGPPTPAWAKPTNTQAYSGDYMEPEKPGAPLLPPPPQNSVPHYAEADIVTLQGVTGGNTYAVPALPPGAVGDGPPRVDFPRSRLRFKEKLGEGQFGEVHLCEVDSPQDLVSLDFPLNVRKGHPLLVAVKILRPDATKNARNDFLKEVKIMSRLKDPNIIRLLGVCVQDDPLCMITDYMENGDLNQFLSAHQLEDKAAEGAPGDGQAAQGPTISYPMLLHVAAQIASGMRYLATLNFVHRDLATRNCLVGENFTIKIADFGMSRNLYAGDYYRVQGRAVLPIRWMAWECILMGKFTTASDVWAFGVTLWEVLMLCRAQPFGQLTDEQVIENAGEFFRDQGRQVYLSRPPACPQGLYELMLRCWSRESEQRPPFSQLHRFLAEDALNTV
T6 sequence (Q16288 32-839): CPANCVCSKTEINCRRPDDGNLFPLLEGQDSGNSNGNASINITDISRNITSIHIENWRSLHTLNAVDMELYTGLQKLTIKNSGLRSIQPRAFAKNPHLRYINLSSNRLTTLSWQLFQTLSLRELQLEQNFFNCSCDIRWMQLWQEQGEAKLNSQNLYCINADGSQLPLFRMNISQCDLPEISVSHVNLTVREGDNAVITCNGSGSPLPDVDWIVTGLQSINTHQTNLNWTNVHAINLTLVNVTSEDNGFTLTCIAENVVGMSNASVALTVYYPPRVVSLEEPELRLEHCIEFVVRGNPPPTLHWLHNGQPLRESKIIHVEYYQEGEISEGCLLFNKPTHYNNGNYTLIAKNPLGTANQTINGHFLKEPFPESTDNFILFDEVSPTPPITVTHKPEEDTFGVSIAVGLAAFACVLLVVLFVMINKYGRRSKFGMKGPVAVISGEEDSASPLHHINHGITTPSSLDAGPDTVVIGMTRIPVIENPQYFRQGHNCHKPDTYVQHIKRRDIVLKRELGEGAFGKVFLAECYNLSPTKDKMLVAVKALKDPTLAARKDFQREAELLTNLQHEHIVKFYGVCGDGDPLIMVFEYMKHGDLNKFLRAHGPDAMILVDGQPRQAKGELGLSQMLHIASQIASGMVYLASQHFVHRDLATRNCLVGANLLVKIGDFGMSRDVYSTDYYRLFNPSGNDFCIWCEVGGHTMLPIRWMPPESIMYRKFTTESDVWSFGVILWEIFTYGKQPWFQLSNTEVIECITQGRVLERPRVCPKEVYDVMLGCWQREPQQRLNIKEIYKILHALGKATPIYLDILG
T2 sequence (P23458 whole entry): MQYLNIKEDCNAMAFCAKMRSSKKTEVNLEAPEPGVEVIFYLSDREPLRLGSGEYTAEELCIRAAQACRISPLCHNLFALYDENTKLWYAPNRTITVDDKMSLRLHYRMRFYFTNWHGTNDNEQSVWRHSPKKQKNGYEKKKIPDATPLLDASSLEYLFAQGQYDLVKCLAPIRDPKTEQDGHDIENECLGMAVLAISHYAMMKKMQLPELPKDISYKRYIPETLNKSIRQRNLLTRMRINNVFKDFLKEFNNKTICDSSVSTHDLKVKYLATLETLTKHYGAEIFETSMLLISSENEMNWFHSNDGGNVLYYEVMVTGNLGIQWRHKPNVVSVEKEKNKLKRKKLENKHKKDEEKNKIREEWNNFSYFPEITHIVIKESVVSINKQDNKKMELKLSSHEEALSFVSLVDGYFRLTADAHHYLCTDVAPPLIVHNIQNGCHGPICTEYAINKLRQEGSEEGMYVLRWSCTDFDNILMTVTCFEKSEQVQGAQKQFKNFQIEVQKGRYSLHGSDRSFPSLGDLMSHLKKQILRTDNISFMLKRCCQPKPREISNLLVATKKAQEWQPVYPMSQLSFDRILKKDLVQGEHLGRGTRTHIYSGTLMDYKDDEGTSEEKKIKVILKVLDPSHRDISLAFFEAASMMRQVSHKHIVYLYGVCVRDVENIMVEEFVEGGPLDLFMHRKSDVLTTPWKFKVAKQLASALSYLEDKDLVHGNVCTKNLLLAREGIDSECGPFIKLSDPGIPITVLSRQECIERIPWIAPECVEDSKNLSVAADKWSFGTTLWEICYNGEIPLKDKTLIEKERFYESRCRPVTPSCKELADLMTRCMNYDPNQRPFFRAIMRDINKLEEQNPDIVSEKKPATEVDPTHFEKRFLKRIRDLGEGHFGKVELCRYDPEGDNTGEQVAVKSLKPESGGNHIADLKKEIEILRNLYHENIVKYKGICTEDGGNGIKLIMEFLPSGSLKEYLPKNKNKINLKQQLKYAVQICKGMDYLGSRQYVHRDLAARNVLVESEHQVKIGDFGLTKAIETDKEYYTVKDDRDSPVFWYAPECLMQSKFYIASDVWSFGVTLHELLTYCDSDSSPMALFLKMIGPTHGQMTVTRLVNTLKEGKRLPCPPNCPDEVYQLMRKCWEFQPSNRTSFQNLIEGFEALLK
T3 sequence (P12268 2-514 limits assumed): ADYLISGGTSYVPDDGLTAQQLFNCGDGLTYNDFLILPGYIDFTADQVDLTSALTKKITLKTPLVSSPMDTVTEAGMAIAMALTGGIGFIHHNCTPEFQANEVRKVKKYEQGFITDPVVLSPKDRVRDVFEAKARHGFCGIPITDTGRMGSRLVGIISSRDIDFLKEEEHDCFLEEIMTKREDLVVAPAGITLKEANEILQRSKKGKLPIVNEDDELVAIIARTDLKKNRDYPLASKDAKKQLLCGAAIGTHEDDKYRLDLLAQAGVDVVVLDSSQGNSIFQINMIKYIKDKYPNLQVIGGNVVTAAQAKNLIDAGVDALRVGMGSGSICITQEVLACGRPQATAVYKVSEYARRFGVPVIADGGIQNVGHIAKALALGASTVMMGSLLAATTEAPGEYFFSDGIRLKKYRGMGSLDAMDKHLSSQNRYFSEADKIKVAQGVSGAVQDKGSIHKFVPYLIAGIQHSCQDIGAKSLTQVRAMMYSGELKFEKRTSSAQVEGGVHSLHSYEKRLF

NVP-BHG712
Interaction with ATP-binding pocket, JAK2;K882 signal across the concentration range (JAK2): do not interact
Interaction with ATP-binding pocket, JAK1;K908 signal across the concentration range (JAK1): do not interact
IC50 [1]: 9.6 µM
IC50 [2]: 0.0021 µM
IC50 (MAP3K20): 2.9 µM
MaxLFQ signal of XO44-bound NTRK3;K572 over the concentration range [3]: stable MaxLFQ signal over the full concentration range
IC50 ([4]; apparent IC50, lysine 69 in ATP pocket, n = 3, read-out: IC50 GAK;K69): 9.4 µM
IC50 ([4]; apparent IC50, lysine 175 in ATP pocket, n = 3, read-out: IC50 GAK;K175): 13 µM
IC50 [5]: 9.7 µM
Binding to DDR1 in kinobeads profiling (DDR1): does not bind
